The source of these data is ChEMBL document CHEMBL1125413 (J Med Chem, 1992).

Experiment [1] concerns the target T1, Sodium-dependent dopamine transporter (Rattus norvegicus, UniProt P23977).
For experiment [2], the target named is T1, Sodium-dependent dopamine transporter. The source holds these as a separate data set.
Experiment [3] has the same target. Nature of the experiment: Inhibition of [3H]dopamine uptake at dopamine transporter.
Experiment [4] has the same target. Nature of the experiment: Inhibition of [3H]-dopamine uptake at dopamine transporter.
Experiment [5] has the same target. Nature of the experiment: Inhibition of [3H]mazindol binding to the dopamine transporter.
The target is the same in experiment [6]. Nature of the experiment: Inhibition of [3H]BTCP binding to the dopamine transporter.
Experiment [7] shares this target. Briefly: Potency for the inhibition of [3H]WIN-35428 binding to the dopamine transporter.
The target is the same in experiment [8]. Briefly: Inhibition of [3H]WIN-35428 binding to the dopamine transporter.
For experiment [9] the target is unchanged. Briefly: Inhibition of [3H]GBR-12935 binding to the dopamine transporter.
Experiment [10] has the same target. Nature of the experiment: Inhibition of [3H]cocaine binding to the dopamine transporter.
Experiment [11] has the same target. Nature of the experiment: Inhibition of dopamine uptake at dopamine transporter.
The target is the same in experiment [12]. Briefly: Inhibition of [3H]dopamine uptake at the dopamine transporter.
The target is the same in experiment [13]. The source holds these as a separate data set.

T1 sequence (P23977 whole entry): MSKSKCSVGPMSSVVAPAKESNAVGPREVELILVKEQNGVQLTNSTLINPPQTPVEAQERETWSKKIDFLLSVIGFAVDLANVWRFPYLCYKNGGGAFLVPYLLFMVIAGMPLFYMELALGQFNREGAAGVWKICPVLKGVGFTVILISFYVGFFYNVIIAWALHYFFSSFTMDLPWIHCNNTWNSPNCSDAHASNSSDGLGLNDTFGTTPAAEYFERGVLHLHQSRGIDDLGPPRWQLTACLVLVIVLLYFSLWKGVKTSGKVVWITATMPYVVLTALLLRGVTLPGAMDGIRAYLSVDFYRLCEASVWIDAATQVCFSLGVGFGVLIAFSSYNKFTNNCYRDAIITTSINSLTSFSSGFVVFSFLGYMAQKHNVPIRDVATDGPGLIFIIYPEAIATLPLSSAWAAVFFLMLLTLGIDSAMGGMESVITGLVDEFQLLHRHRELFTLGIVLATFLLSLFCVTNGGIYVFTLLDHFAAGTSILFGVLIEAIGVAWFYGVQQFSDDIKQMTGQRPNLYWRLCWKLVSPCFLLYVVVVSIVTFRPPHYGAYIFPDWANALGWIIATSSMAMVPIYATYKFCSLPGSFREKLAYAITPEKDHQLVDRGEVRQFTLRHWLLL

As a reminder, the IC50 is the concentration that inhibits the measured activity by half. A high value points to a need for much substance. As for `COC(=O)C1C2CC[C@H](C[C@@H]1OC(=O)Nc1cccc([N+](=O)[O-])c1)N2C` (stereo partly specified), the IC50 in experiment [1] stood at 0.33 µM; in [2], 0.037 µM; in [3] it was 0.178 µM.

Turning to `COC(=O)C1C2CC[C@H](C[C@@H]1OC(=O)c1ccccc1)[N+]2(C)C` (stereo partly specified), the IC50 in experiment [4] was found to be 0.014 µM; in experiment [5] it was 20 µM; in experiment [6], 0.008 µM; in [7], 10.7 µM.

`COC(=O)C1C2CC[C@H](C[C@@H]1OC(=O)c1ccc(N=[N+]=[N-])c(I)c1)N2C` (stereo partly specified) registered an IC50 in experiment [3] of 0.8 µM.

`CN1C2CC[C@@H]1C[C@H](OC(=O)c1ccccc1)C2C(=O)OCCc1ccc(N)cc1` (stereo partly specified): the IC50 in experiment [8] amounted to 0.071 µM.

`COC(=O)C1C2CC[C@H](C[C@@H]1OC(=O)c1ccc(N)cc1)N2C` (stereo partly specified): the IC50 in experiment [5] is 3.04 µM; in [7], 1.23 µM.

For `CN1C2CC[C@@H]1C[C@H](O)C2C(=O)O` (stereo partly specified), the IC50 in experiment [5] was more than 1000 µM; in [1], 0.0047 µM.

With `CN1C2CC[C@@H]1C[C@H](OC(=O)c1ccc(N)cc1)C2C(=O)O` (stereo partly specified), the IC50 stood at 0.035 µM in experiment [4], 4.51 µM in [5], 0.009 µM in experiment [1] and 8.25 µM in experiment [7].

The compound `COC(=O)C1C2CC[C@H](C[C@@H]1c1ccc(F)cc1)N2` (stereo partly specified) yielded an IC50 in [2] of 0.036 µM.

As to `COC(=O)C1C2CC[C@H](C[C@@H]1OC(=O)c1ccccc1)N2Cc1ccccc1` (stereo partly specified), the IC50 in [9] was determined as 0.25 µM; in [8] it was 0.668 µM; in [10] it was 0.02 µM; in experiment [6], 0.14 µM; in [3], 0.077 µM.

`COC(=O)[C@@H]1C2CC[C@H](C[C@@H]1c1ccccc1)N2C` registered an IC50 in experiment [7] of 0.561 µM.

Turning to `CN1[C@@H]2CC[C@H]1C[C@H](OC(=O)c1ccccc1)C2`, the IC50 in [10] worked out at 3.3 µM; in [5] it was 15 µM; in [11] it was 186 µM; in experiment [2] it was 23 µM; in experiment [12], 110 µM.

For the compound `COC(=O)[C@@H]1C2CC[C@H](C[C@@H]1c1ccc(N=[N+]=[N-])cc1)N2C`, the IC50 was 0.002 µM in experiment [8] and 0.2 µM in experiment [11].

`COC(=O)C1C2CC[C@H](C[C@H]1c1ccc(C)cc1)N2C` (stereo partly specified): the results for the IC50 in experiment [5], in experiment [7] and in experiment [3] were 0.005 µM, 0.002 µM and 0.11 µM, respectively.

For `c1ccc2sc(C3(N4CCCCC4)CCCCC3)cc2c1`, the IC50 came to 0.005 µM in experiment [6], 0.02 µM in experiment [1], 0.002 µM in experiment [13] and 0.042 µM in experiment [2].

Turning to `COC(=O)C1C2CC[C@H](C[C@@H]1c1ccc(I)cc1)N2C` (stereo partly specified), in experiment [7], the IC50 is 0.001 µM.

`CC[C@H](C)[C@H](NC(=O)[C@@H](NC[C@H](CC(C)C)NC(=O)[C@H](Cc1c[nH]cn1)NC(=O)[C@H](Cc1ccccc1)NC(=O)[C@]1(C)CCCN1C(=O)OC(C)(C)C)C(C)C)C(=O)NCc1ccccn1`: the IC50 came out at 0.029 µM in experiment [4], 0.178 µM in [5], 0.093 µM in experiment [1] and 2.48 µM in [3].

In the case of `COC(=O)C1C2CC[C@H](C[C@@H]1OC(=O)c1cccc(N=C=S)c1)N2C` (stereo partly specified), the IC50 was found to be 0.072 µM in experiment [1] and 1.46 µM in [7].

Take `O=C(O[C@H]1C[C@H]2CCC(N2)C1C(=O)O)c1ccccc1` (stereo partly specified): the values for the IC50 in experiment [10] and in experiment [5] were 78.2 µM and 342 µM, respectively.

Turning to `COC(=O)C1C2CC[C@H](C[C@@H]1c1ccccc1)N2` (stereo partly specified), the IC50 in [5] came out at 0.36 µM; in experiment [2], 0.086 µM.

`CN1C2CC[C@@H]1C[C@H](c1ccc(Cl)cc1)C2C(=O)OCCc1ccc(N=[N+]=[N-])c(I)c1` (stereo partly specified): the IC50 in experiment [3] turned out to be 1.4 µM.

In experiment [4], `CNC(=O)C1C2CC[C@H](C[C@@H]1OC(=O)c1ccccc1)N2C` (stereo partly specified) displayed an IC50 of 2 µM.

Consider `C=CCN1C2CC[C@@H]1C[C@H](OC(=O)c1ccccc1)C2C(=O)OC` (stereo partly specified), for which the IC50 in [2] worked out at 1.02 µM; in [3], 2.5 µM.

Take `COC(=O)C1C2CC[C@H](C[C@@H]1OC(=O)c1ccc(N=C=S)cc1)N2C` (stereo partly specified): the figures for the IC50 in [1], in experiment [7] and in experiment [3] were 0.276 µM, 1.05 µM and 2.78 µM, respectively.

As for `COC(=O)[C@@H]1C2CC[C@H](C[C@@H]1c1ccc(N)cc1)N2C`, the IC50 in [10] was 0.192 µM; in experiment [11] it was 0.557 µM.

`COC(=O)C1C2CC[C@H](C[C@@H]1c1ccc(Cl)cc1)N2C` (stereo partly specified): the IC50 in experiment [8] stood at 0.001 µM; in experiment [5], 0.002 µM; in [11], 0.03 µM.

Turning to `COC(=O)C1C2CC[C@H](C[C@@H]1O)N2C` (stereo in doubt; 18), the 50% inhibitory concentration (IC50) in experiment [5] stood at 62 µM.

On to `COC(=O)C1C2CC[C@H](C[C@@H]1OC(=O)c1ccccc1)N2` (stereo in doubt; 22), for which the IC50 in experiment [5] was found to be 1.21 µM; in experiment [1], 0.092 µM; in [7], 0.303 µM; in experiment [2] it was 0.414 µM.

As to `COC(=O)C1C2CC[C@H](C[C@@H]1OC(=O)c1ccccc1)N2` (stereo in doubt; 23), the IC50 in [2] came out at 0.27 µM; in experiment [3] it was 2.5 µM.

In experiment [5], `COC(=O)C1C2CC[C@H](C[C@@H]1O)N2C` (stereo in doubt; 31) gave an IC50 of 87 µM.

In the case of `COC(=O)[C@@H]1C2CC[C@H](C[C@@H]1c1ccccc1)N2C` (stereo in doubt; 47), the values for the IC50 in [5], in experiment [2] and in experiment [3] were 0.119 µM, 0.044 µM and 0.96 µM, respectively.

Turning to `COC(=O)[C@@H]1C2CC[C@H](C[C@@H]1c1ccccc1)N2C` (stereo in doubt; 49), the IC50 in [2] turned out to be 0.022 µM; in experiment [3], 1.33 µM.

On to `COC(=O)[C@@H]1C2CC[C@H](C[C@@H]1c1ccccc1)N2C` (stereo in doubt; 50), for which the IC50 in experiment [2] was found to be 32 µM; in experiment [3], 200 µM.

As to `COC(=O)[C@@H]1C2CC[C@H](C[C@@H]1c1ccccc1)N2C` (stereo in doubt; 68), the figures for the IC50 in experiment [8], in experiment [10] and in [5] were 2.9 µM, 2.6 µM and 385 µM, respectively.

Regarding `COC(=O)[C@@H]1C2CC[C@H](C[C@@H]1c1ccccc1)N2C` (stereo in doubt; 70), the half-inhibitory concentration (IC50) in experiment [10] was determined as 1.2 µM; in experiment [11] it was 2.1 µM.
